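Interpolation was linear, between the two tested concentrations surrounding the appropriate level; five concentrations were tested over 48 hours in 96-well plates. Here, GI50 denotes the concentration required for 50% inhibition of growth.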 Active and inactive are the calls of the source. Rule as the data show it: active = GI50 up to about 1.1 µM and inactive = higher.
Tests used:
Assay in all cases: DTP human tumour cell line panel, 48 h
[1] = test system: TK-10
[2] = test system: PC-3
[3] = test system: SF-539
[4] = test system: 786-0
[5] = test system: SK-MEL-28
[6] = test system: SW-620
[7] = test system: SN12C
[8] = test system: SF-295
[9] = test system: MOLT-4
[10] = test system: MDA-MB-435
[11] = test system: SR
[12] = test system: OVCAR-3
[13] = test system: SK-MEL-2
[14] = test system: Hs-578T
[15] = test system: U-251
[16] = test system: K562
[17] = test system: MCF7
[18] = test system: Malme-3M
[19] = test system: UO-31
[20] = test system: COLO 205

SMILES | GI50 [1] | GI50 [2] | GI50 [3] | GI50 [4] | GI50 [5] | GI50 [6] | GI50 [7] | GI50 [8] | GI50 [9] | GI50 [10] | GI50 [11] | GI50 [12] | GI50 [13] | GI50 [14] | GI50 [15] | GI50 [16] | GI50 [17] | GI50 [18] | GI50 [19] | GI50 [20]
CCN(CC)CC[n+]1ccc2c(C)c3[nH]c4ccccc4c3c(C)c2c1 | 4.41 µM (inactive) | 0.553 µM (active) | 0.612 µM (active) | 0.56 µM (active) | 0.533 µM (active) | 0.51 µM (active) | 0.285 µM (active) | 0.789 µM (active) | 0.106 µM (active) | 0.635 µM (active) | 0.608 µM (active) | 0.236 µM (active) | 0.428 µM (active) | 0.0405 µM (active) | 0.163 µM (active) | 0.214 µM (active) | 0.522 µM (active) | 0.662 µM (active) |  | 
CCOC(=O)Nn1c(CC#N)nnc1Cc1ccccc1 | > 100 µM (inactive) | > 100 µM (inactive) | > 100 µM (inactive) | > 100 µM (inactive) | > 100 µM (inactive) | > 100 µM (inactive) | > 100 µM (inactive) | > 100 µM (inactive) | > 100 µM (inactive) | > 100 µM (inactive) | > 100 µM (inactive) | > 100 µM (inactive) | > 100 µM (inactive) | > 100 µM (inactive) | > 100 µM (inactive) | > 100 µM (inactive) | > 100 µM (inactive) | > 100 µM (inactive) | > 100 µM (inactive) | 
CN(C)Cc1cc(/N=N/c2ccccc2Cl)cc(CN(C)C)c1O | > 100 µM (inactive) | 33.5 µM (inactive) | > 100 µM (inactive) | 76.9 µM (inactive) | 18.5 µM (inactive) | 90.2 µM (inactive) | > 100 µM (inactive) | 44.7 µM (inactive) | 20.5 µM (inactive) | 34.4 µM (inactive) | 45.2 µM (inactive) | 21.4 µM (inactive) |  | 28.1 µM (inactive) | 84.3 µM (inactive) | 37.5 µM (inactive) | > 100 µM (inactive) | > 10 µM (inactive) | 23.3 µM (inactive) | 20.5 µM (inactive)
CCOC(=O)c1c(N2CCCC2)[nH]c(=O)c(C(c2c(O)c(C(=O)OCC)c(N3CCCC3)[nH]c2=O)C(C)C)c1O | 42.4 µM (inactive) | 33.6 µM (inactive) | > 100 µM (inactive) | 61.8 µM (inactive) | > 100 µM (inactive) | > 100 µM (inactive) | > 100 µM (inactive) | > 100 µM (inactive) | > 100 µM (inactive) | > 100 µM (inactive) | 37.5 µM (inactive) | > 100 µM (inactive) |  | 42.1 µM (inactive) | 37.8 µM (inactive) | > 100 µM (inactive) | > 100 µM (inactive) | > 100 µM (inactive) | > 100 µM (inactive) | > 100 µM (inactive)
C/C(=C/CC[C@](C)(OC1OC(CO)C(O)C(O)C1O)[C@H]1CC[C@]2(C)[C@@H]1CC[C@@H]1[C@@]3(C)CC[C@H](O)C(C)(C)[C@@H]3C[C@H](O)[C@]12C)CO (stereo partly specified) | 55.7 µM (inactive) | 31.5 µM (inactive) | 10.4 µM (inactive) | 12.6 µM (inactive) | 18.2 µM (inactive) | 27.4 µM (inactive) | 22 µM (inactive) | 14.8 µM (inactive) | 12.2 µM (inactive) | 36 µM (inactive) | 22.2 µM (inactive) | 24.2 µM (inactive) |  | 16.2 µM (inactive) | 13.6 µM (inactive) | 13.4 µM (inactive) | 34.8 µM (inactive) | 21.6 µM (inactive) | 37.9 µM (inactive) | 21.3 µM (inactive)
CC1(C)C[C@H](O)[C@H](O)[C@]23C(=O)O[C@H](O)[C@H]2C(C=O)=CC[C@@H]13 | > 100 µM (inactive) | > 100 µM (inactive) | > 100 µM (inactive) | > 100 µM (inactive) | > 100 µM (inactive) | > 100 µM (inactive) | > 100 µM (inactive) | > 100 µM (inactive) | > 100 µM (inactive) | > 100 µM (inactive) | > 100 µM (inactive) | > 100 µM (inactive) |  | > 100 µM (inactive) | 96.2 µM (inactive) | > 100 µM (inactive) | > 100 µM (inactive) | > 100 µM (inactive) | > 100 µM (inactive) | > 100 µM (inactive)
COc1ccc(C)cc1N1C(=O)C2ON(Cc3ccc(CC(N)=O)cc3)C(c3c4ccccc4c(Cl)c4ccccc34)C2C1=O (stereo unspecified) | 23.1 µM (inactive) | 28.1 µM (inactive) |  | 21.4 µM (inactive) | 44.1 µM (inactive) | 28.4 µM (inactive) | 20.2 µM (inactive) | 22.9 µM (inactive) | 24.9 µM (inactive) | 21.9 µM (inactive) | 12.8 µM (inactive) | 28.4 µM (inactive) | 21.1 µM (inactive) | 41.9 µM (inactive) | 24.3 µM (inactive) | 28.8 µM (inactive) | 26.4 µM (inactive) | 31.1 µM (inactive) | 25.7 µM (inactive) | 

— ChEMBL document CHEMBL1201862, “PubChem BioAssay data set” (2004)
